Like-named read-outs stand apart in the source and are kept apart here.
Assays:
human M2 receptor [1] = biological target: T1, human M2 receptor (Homo sapiens, UniProt P08172); assay type: cell-based; settings: α >1 = positive cooperativity
T1 sequence (P08172 1-466): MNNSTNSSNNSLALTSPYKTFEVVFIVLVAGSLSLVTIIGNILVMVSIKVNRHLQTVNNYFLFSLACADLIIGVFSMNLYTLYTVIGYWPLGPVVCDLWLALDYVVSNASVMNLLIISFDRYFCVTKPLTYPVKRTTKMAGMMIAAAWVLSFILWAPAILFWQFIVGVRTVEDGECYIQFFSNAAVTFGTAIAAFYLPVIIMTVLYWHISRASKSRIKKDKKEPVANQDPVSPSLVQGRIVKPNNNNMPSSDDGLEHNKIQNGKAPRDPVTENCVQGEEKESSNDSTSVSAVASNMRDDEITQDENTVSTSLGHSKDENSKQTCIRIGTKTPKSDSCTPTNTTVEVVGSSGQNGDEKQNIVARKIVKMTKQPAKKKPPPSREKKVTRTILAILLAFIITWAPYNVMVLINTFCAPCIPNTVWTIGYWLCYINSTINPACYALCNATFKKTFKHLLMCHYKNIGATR
Experimental: B-1.2. Determination of Positive Cooperativity (α Factor)
In contrast to the EC50 determination of the test substances (see B-1.1), however, this is not done using one acetylcholine concentration; instead, every concentration of the test substance is combined with an acetylcholine 8-point dose-response curve. […] The shift in the acetylcholine dose-response curve in the presence of increasing concentrations of the test substance is analysed and quantified by means of GraphPad PRISM (Allosteric EC50 shift). […] Positive cooperativity is the hallmark of a positive allosteric modulator. […] The greater the magnitude of the α value, the greater the extent of cooperativity between orthosteric and allosteric.

human M2 receptor [2] = biological target: T1, human M2 receptor
[3] = shift in the acetylcholine dose-response curve (Allosteric EC50 shift, GraphPad PRISM)
[4] = Receptor activity EC50, M2-GIRK1/4 activation test, acetylcholine at EC20, allosteric potency, in some cases mean values from two or more determinations
[5] = shift of acetylcholine dose-response curve (Allosteric EC50 shift)
[6] = Receptor activity EC50, allosteric potency at EC20 acetylcholine, M2-GIRK1/4 reporter cells, in some cases mean of two or more determinations
[7] = read-out: Efficiency, boosting of the acetylcholine effect at EC20 acetylcholine concentration, M2-GIRK1/4 reporter cells

Row | Cooperativity (alpha factor) (human M2 receptor [1]; [3]) | EC50 (human M2 receptor [2]; [4]) | SMILES | also measured
1 | 33 | 15 nM | O=C(NC(c1c(F)cccc1F)C(F)(F)F)c1cn(-c2ccc(F)cc2F)c2nc(N3CC[C@H](F)C3)ccc2c1=O (single isomer, unassigned) [Example 243] | 
2 | 16 | 76 nM | C[C@H](NC(=O)c1cn(-c2c(F)cccc2F)c2nc(N3C[C@@H](O)CC3=O)ccc2c1=O)C(F)(F)F [Example 329, 1-(2,6-Difluorophenyl)-7-[(4S)-4-hydroxy-2-oxopyrrolidin-1-yl]-4-oxo-N-[(2S)-1,1,1-trifluoropropan-2-yl]-1,4-dihydro-1,8-naphthyridine-3-carboxamide] | 
3 | 33 | 363 nM | CC[C@@H](NC(=O)c1cn(-c2ccc(F)cc2F)c2nc(N3CCC(O)C3=O)ccc2c1=O)C(F)(F)F (single isomer, unassigned) [Example 225] | 
4 | 63 | 4 nM | CC(C)(C)[C@@H](NC(=O)c1cn(-c2c(F)cc(F)cc2F)c2nc(N3C[C@@H](O)CC3=O)ccc2c1=O)C(F)(F)F [Example 357, 7-[(4S)-4-Hydroxy-2-oxopyrrolidin-1-yl]-4-oxo-N-[(2R)-1,1,1-trifluoro-3,3-dimethylbutan-2-yl]-1-(2,4,6-trifluorophenyl)-1,4-dihydro-1,8-naphthyridine-3-carboxamide] | 
5 | 24 | 44 nM | CC[C@@H](NC(=O)c1cn(-c2c(F)cc(F)cc2F)c2nc(N3CCC(O)C3=O)ccc2c1=O)C(F)(F)F (mixture of isomers) [Example 280, 7-[3-Hydroxy-2-oxopyrrolidin-1-yl]-4-oxo-N-[(2R)-1,1,1-trifluorobutan-2-yl]-1-(2,4,6-trifluorophenyl)-1,4-dihydro-1,8-naphthyridine-3-carboxamide] | 
6 | 24 | 62 nM | CC[C@@H](NC(=O)c1cn(-c2ccc(F)cc2F)c2nc(N3CCC(O)(O)C(F)(F)C3)ccc2c1=O)C(F)(F)F [Example 35, 7-(3,3-Difluoro-4,4-dihydroxypiperidin-1-yl)-1-(2,4-difluorophenyl)-4-oxo-N-[(2R)-1,1,1-trifluorobutran-2-yl]-1,4-dihydro-1,8-naphthyridine-3-carboxamide] | 
7 |  |  | C[C@@H]1CN(c2ccc3c(=O)c(C(=O)N[C@@H](C4CC4)C(F)(F)F)cn(-c4c(F)cc(F)cc4F)c3n2)C(=O)N1 [Example 437, N-[(1S)-1-Cyclopropyl-2,2,2-trifluoroethyl]-7-[(4R)-4-methyl-2-oxoimidazolidin-1-yl]-4-oxo-1-(2,4,6-trifluorophenyl)-1,4-dihydro-1,8-naphthyridine-3-carboxamide] | Cooperativity (alpha factor) (human M2 receptor [1]; [5]): 29; EC50 (human M2 receptor [2]; [6]): 9 nM; Emax (human M2 receptor [2]; [7]): 98.4%
8 | 30 | 17 nM | O=C(NC12CC3CC(CC(C3)C1)C2)c1cn(-c2ccc(F)cc2F)c2nc(N3CC[C@@H](F)[C@H](O)C3)ccc2c1=O [Example 3, 1-(2,4-Difluorophenyl)-7-[(3R,4R)-4-fluoro-3-hydroxypiperidin-1-yl]-4-oxo-N-(tricyclo[3.3.1.1^3,7]dec-1-yl)-1,4-dihydro-1,8-naphthyridine-3-carboxamide] | 
9 |  |  | CCC(COC(F)(F)F)NC(=O)c1cn(-c2c(F)cc(F)cc2F)c2nc(N3C[C@@H](O)CC3=O)ccc2c1=O (mixture of isomers) [Example 410, 7-[(4S)-4-Hydroxy-2-oxopyrrolidin-1-yl]-4-oxo-N-[1-(trifluoromethoxy)butan-2-yl]-1-(2,4,6-trifluorophenyl)-1,4-dihydro-1,8-naphthyridine-3-carboxamide] | Cooperativity (alpha factor) (human M2 receptor [1]; [5]): 36; EC50 (human M2 receptor [2]; [6]): 9 nM; Emax (human M2 receptor [2]; [7]): 87%
10 | 28 | 80 nM | CC[C@@H](NC(=O)c1cn(-c2c(F)cccc2F)c2nc(N3CCC(C)(O)C3)ccc2c1=O)C(F)(F)F (mixture of isomers) [Example 276, 1-(2,6-Difluorophenyl)-7-[3-hydroxy-3-methylpyrrolidin-1-yl]-4-oxo-N-[(2R)-1,1,1-trifluorobutan-2-yl]-1,4-dihydro-1,8-naphthyridine-3-carboxamide] | 
11 |  |  | O=C(NC(CC(F)(F)F)C1CC1)c1cn(-c2c(F)cc(F)cc2F)c2nc(N3C[C@@H](O)CC3=O)ccc2c1=O (single isomer, unassigned) [Example 514] | Cooperativity (alpha factor) (human M2 receptor [1]; [5]): 30; Efficiency (human M2 receptor [2]; boosting of the acetylcholine effect at EC20 acetylcholine concentration, M2-GIRK1/4 reporter cells): 99.0%; EC50 (human M2 receptor [2]; read-out: Receptor activity EC50, allosteric potency at EC20 acetylcholine, M2-GIRK1/4 reporter cells, in some cases mean of two or more determinations): 10 nM
12 |  |  | CCC(NC(=O)c1cn(-c2c(F)cc(F)cc2F)c2nc(N3C[C@@H](O)[C@H](O)C3)ccc2c1=O)C(F)(F)C(F)(F)F (single isomer, unassigned) [Example 524] | Cooperativity (alpha factor) (human M2 receptor [1]; [5]): 60
13 | 27 |  | CC[C@H](NC(=O)c1cn(-c2c(F)cc(F)cc2F)c2nc(N3CCN(CCO)C3=O)ccc2c1=O)C(F)(F)F [Example 362, 7-[3-(2-Hydroxyethyl)-2-oxoimidazolidin-1-yl]-4-oxo-N-[(2S)-1,1,1-trifluorobutan-2-yl]-1-(2,4,6-trifluorophenyl)-1,4-dihydro-1,8-naphthyridine-3-carboxamide] | 
14 | 9 |  | CN(C)c1ccc2c(=O)c(C(=O)NCc3c(Cl)cccc3C(F)(F)F)cn(-c3ccc(F)cc3F)c2n1 [Example 58, N-[2-Chloro-6-(trifluoromethyl)benzyl]-1-(2,4-difluorophenyl)-7-(dimethylamino)-4-oxo-1,4-dihydro-l,8-naphthyridine-3-carboxamide] | 
15 |  | 98 nM | CCC(NC(=O)c1cn(-c2ccc(F)cc2F)c2nc(N(C)CC(F)F)ccc2c1=O)C(F)(F)F (racemic) [Example 114, rac-7-[(2,2-Difluoroethyl)(methyl)amino]-1-(2,4-difluorophenyl)-4-oxo-N-[1,1,1-trifluorobutan-2-yl]-1,4-dihydro-1,8-naphthyridine-3-carboxamide] | 
16 |  | 200 nM | CC[C@@H](NC(=O)c1cn(-c2ccc(F)cc2F)c2nc(N3CC4CNC(=O)C4C3)ccc2c1=O)C(F)(F)F (single isomer, unassigned) [Example 222] | 
17 |  | 184 nM | CC(C)Nc1ccc2c(=O)c(C(=O)NC34CC5CC(CC(C5)C3)C4)cn(-c3ccc(F)cc3F)c2n1 [Example 158, 1-(2,4-Difluorophenyl)-4-oxo-7-(propan-2-ylamino)-N-(tricyclo[3.3.1.1^3,7]dec-1-yl)-1,4-dihydro-1,8-naphthyridine-3-carboxamide] | 
18 |  |  | CC[C@H](NC(=O)c1cn(-c2c(F)cccc2F)c2nc(N3CCNC3=O)ccc2c1=O)C(F)(F)F [Example 637, 1-(2,6-Difluorophenyl)-4-oxo-7-(2-oxoimidazolidin-1-yl)-N-[(2)-1,1,1-trifluorobutan-2-yl]-1,4-dihydro-1,8-naphthyridine-3-carboxamide] | EC50 (human M2 receptor [2]; [6]): 60 nM; Emax (human M2 receptor [2]; [7]): 93%
19 |  | 343 nM | CC[C@@H](NC(=O)c1cn(-c2ccc(F)cc2F)c2nc(N3CCC(C)(O)C3=O)ccc2c1=O)C(F)(F)F (single isomer, unassigned) [Example 195] | 
20 |  | 54 nM | CC[C@@H](NC(=O)c1cn(-c2ccc(F)cc2F)c2nc(N3CCCN(CC)C3=O)ccc2c1=O)C(F)(F)F [Example 344, 1-(2,4-Difluorophenyl)-7-(3-ethyl-2-oxotetrahydropyrimidin-1(2H)-yl)-4-oxo-N-[(2R)-1,1-trifluorobutan-2-yl]-1,4-dihydro-1,8-naphthyridine-3-carboxamide] | 

Row | SMILES | Cooperativity (alpha factor) (human M2 receptor [1]; [3]) | EC50 (human M2 receptor [2]; [4]) | also measured
21 | CN(C)c1ccc2c(=O)c(C(=O)NC34CC5CC(C3)C(F)(F)C(C5)C4)cn(-c3ccc(F)cc3F)c2n1 [Example 39, 1-(2,4-Difluorophenyl)-N-(4,4-difluorotricyclo[3.3.1.1^3,7]dec-1-yl)-7-(dimethylamino)-4-oxo-1,4-dihydro-1,8-naphthyridine-3-carboxamide] | 14 | 88 nM | 
22 | CC[C@H](NC(=O)c1cn(-c2ccc(F)cc2F)c2nc(N3C[C@H](O)CC3=O)ccc2c1=O)C(F)(F)F [Example 285, 1-(2,4-Difluorophenyl)-7-[(4R)-4-hydroxy-2-oxopyrrolidin-1-yl]-4-oxo-N-[(2S)-1,1,1-trifluorobutan-2-yl]-1,4-dihydro-1,8-naphthyridine-3-carboxamide] | 23 | 598 nM | Emax (human M2 receptor [2]; read-out: Efficiency): 79.9%
23 | O=C(NC12CC3CC(CC(C3)C1)C2)c1cn(-c2ccc(F)cc2F)c2nc(N3CC4C(C3)C4(F)F)ccc2c1=O (stereo not drawn) [Example 2, 7-(6,6-Difluoro-3-azabicylco[3.1.0]hex-3-yl)-1-(2,4-difluorophenyl)-4-oxo-N-(tricyclo[3.3.1.1^3,7]dec-1-yl)-1,4-dihydro-1,8-naphthyridine-3-carboxamide] | 24 | 17 nM | 

From patent US20190367516A1 (Bayer Pharma Aktiengesellschaft, priority 2015, published 2019)
